This is an account of results in patent US20080248097A1, “POLYMERIC MICELLES FOR COMBINATION DRUG DELIVERY” (priority 2007, published 2008).

Like-named read-outs stand apart in the source and are kept apart here.

Data set [1] deals with tumor. Particulars: mouse, in vivo.
Method: (§1) Cancer treatment efficacy of the pH-sensitive micelles was evaluated by comparing the therapeutic windows of small molecule drugs (doxorubicin) and the doxorubicin-conjugated micelles.
(§2) The CDF1 mice (female, n=6), when the tumor volume reached about 100 mm^3, were injected with DOX or the micelles in a volume of 0.1 mL/10 g body weight for the experiments. The dose was either 10 mg/kg for DOX or the micelles (DOX equivalent).
(§3) Cancer treatment efficacy of the pH-sensitive micelles was evaluated by comparing the therapeutic windows of small molecule drugs (doxorubicin) and the doxorubicin-conjugated micelles. Therapeutic windows were determined based on the ratio of ED50 to TD.
The conditions of data set [2]: DMEM with 10% fetal bovine serum, 24 hours, 100 μg mL−1 ADR equivalent, excitation 485 nm.
A short description of data set [3]: Biodistribution and plasma levels in tumor-bearing mice. Particulars: after 10 hours; 10 mg/kg, CDF1 mice.
Method: as §2
For data set [4], the system named is tumor. In words: Cancer treatment efficacy and toxicity in tumor-bearing mice (Table 2, therapeutic window). Particulars: for Complete Cure / Toxic Death: mice; for Complete Cure: cured/animals; for Toxic Death: deaths/animals.
Method: as §1, §2, §3
The test system of data set [5] is human small cell lung cancer SBC-3 cells. Kind of data set: Confocal laser scanning microscopy of intracellular localization. Particulars: 10 μg mL−1. The data set is classed as cell-based. As to the method: FIG. 4 illustrates CLSM images of human small cell lung cancer SBC-3 cells incubated with ADR and PEG-p(Asp-Hyd-ADR) micelles (10 μg mL^−1). […] A series of optical sections was stacked (Z-stacked) by moving the focal plane of the instrument step-by-step through the depth of the cell.

For data set [6] the test system is unchanged. Particulars: different ADR concentrations and exposure times. The source says: As a system releasing bioactive molecules, the micelles are required to maintain the ability of the loaded ADR to suppresses cell growth by binding with DNA strands in the cell nucleus.

On to `COc1cccc2c1C(=O)c1c(O)c3c(c(O)c1C2=O)C[C@@](O)(C(=O)CO)C[C@@H]3O[C@H]1C[C@H](N)[C@H](O)[C@H](C)O1` [DOX, doxorubicin], for which the “Weight change on day 30 (%)” value in the data set on tumor [1] (5 mg/kg) is reported as −13.35 ± 0.59%; with tumor [1] (10 mg/kg) it was −16.84 ± 1.26%. For the same molecule, the “fluorescence intensity at 590 nm” value in data set [2] is given as “intense fluorescence”. Also, the “dose remained in the blood” value in data set [3] is “almost none”. The “Complete Cure” value is on record as 0/6 in the data set with tumor [4] (dose 5 mg/kg) and 1/6 with tumor [4] (dose 10 mg/kg). Moreover, the “Toxic Death” value in the data set with tumor [4] (dose 5 mg/kg) and with tumor [4] (dose 10 mg/kg) was 0/6 throughout. Also, the “fluorescence intensity in cells” value in data set [5] (after 1 hour exposure) is on record as “increase in fluorescence intensity”. In addition, in data set [5] (after 24 hours incubation), the “intracellular localization of fluorescence” value is “only accumulated in cell nuclei”.
Turning to “poly(ethylene glycol)poly(aspartate-hydrazone-adriamycin) [DOX-Micelle]”, in the data set with tumor [4] (based on treatment-to-control (T/C) ratio, ratio of ED50 to TD), the “therapeutic window compared to standard doxorubicin administration” value is “broader therapeutic window”. In addition, the “Complete Cure” value with tumor [4] (dose 5 mg/kg) was 0/6; with tumor [4] (dose 10 mg/kg) it was 0/6; in the data set on tumor [4] (dose 20 mg/kg), 2/6; in the data set on tumor [4] (dose 40 mg/kg), 3/6. For the same molecule, the “fluorescence intensity in cells” value in data set [5] (after 1 hour exposure) is “no such increase was detected”; in data set [5] (after 24 hours incubation), “considerable fluorescence change”. The “intracellular localization of fluorescence” value in data set [5] (after 24 hours incubation) was “dot-shaped within the cytoplasm”. For the same molecule, the growth-inhibition effect result in data set [6] is recorded as “gradually approach those of free ADR”.
